From patent US10221173B2, “Chemical compounds” (AstraZeneca AB, priority 2017, dated 2019)
≈ marks a conversion by molar mass, not a printed value.

Tests used:
[1] = biological target: recombinant human Estrogen Receptor alpha ligand binding domain (ER alpha-LBD (GST)) (Homo sapiens (Human), UniProt P03372); assay: ERα binding assay (LanthaScreen TR-FRET competition)
Method: The ability of compounds to bind to isolated Estrogen Receptor Alpha Ligand binding domain (ER alpha—LBD (GST)) was assessed in competition assays using a LanthaScreen Time-Resolved Fluorescence Resonance Energy Transfer (TR-FRET) detection end-point. For the LanthaScreen TR-FRET endpoint, a suitable fluorophore (Fluormone ES2, ThermoFisher, Product code P2645) and recombinant human Estrogen Receptor alpha ligand binding domain, residues 307-554 (expressed and purified in-house) were used to measure compound binding. The assay principle is that ER alpha-LBD (GST) is added to a fluorescent ligand to form a receptor/fluorophore complex. A terbium-labelled anti-GST antibody (Product code PV3551) is used to indirectly label the receptor by binding to its GST tag, and competitive binding is detected by a test compound's ability to displace the fluorescent ligand, resulting in a loss of TR-FRET signal between the Tb-anti-GST antibody and the tracer. The assay was performed as follows with all reagent additions carried out using the Beckman Coulter BioRAPTR FRD microfluidic workstation: • 1. Acoustic dispense 120 nL of the test compound into a black low volume 384 well assay plates. • 2. Prepare 1× ER alpha-LBD/Tb-antiGST Ab in ES2 screening buffer and incubate for 15 minutes. • 3. […] Cover the assay plate to protect the reagents from light and evaporation, and incubate at room temperature for 4 hours. • 5. Excite at 337 nm and measure the fluorescent emission signal of each well at 490 nm and 520 nm using the BMG PheraSTAR.
TR-FRET dose response data obtained with each compound was exported into a suitable software package (such as Origin or Genedata) to perform curve fitting analysis. Competitive ER alpha binding was expressed as an IC50 value.

[2] = biological target: T1, Estrogen Receptor (ERα) in MCF-7 cells (Homo sapiens (Human), UniProt P03372); assay: MCF-7 ER down-regulation assay (immuno-fluorescence); type: cell-based
T1 sequence (P03372 whole entry): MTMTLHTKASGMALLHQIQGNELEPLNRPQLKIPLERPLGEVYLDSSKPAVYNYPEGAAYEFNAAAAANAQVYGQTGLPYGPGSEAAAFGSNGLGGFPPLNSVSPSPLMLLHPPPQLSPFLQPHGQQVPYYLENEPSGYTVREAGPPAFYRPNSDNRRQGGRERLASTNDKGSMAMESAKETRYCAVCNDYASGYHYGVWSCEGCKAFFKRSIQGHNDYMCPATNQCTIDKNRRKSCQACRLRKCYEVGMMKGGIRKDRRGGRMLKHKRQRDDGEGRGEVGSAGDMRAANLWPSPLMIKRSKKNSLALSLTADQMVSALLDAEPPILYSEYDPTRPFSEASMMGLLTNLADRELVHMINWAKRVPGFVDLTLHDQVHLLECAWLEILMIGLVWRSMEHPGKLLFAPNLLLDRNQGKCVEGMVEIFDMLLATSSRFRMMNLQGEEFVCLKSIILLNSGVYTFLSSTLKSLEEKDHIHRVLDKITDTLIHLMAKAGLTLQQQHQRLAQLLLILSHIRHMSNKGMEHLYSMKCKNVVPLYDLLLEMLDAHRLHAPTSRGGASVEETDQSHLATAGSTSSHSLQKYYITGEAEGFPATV

[3] = biological target: estrogen receptor (ERα) in CAMA-1 cells (Homo sapiens (Human), UniProt P03372); assay: Western blotting assay, ER down-regulation in CAMA-1; type: cell-based; details: CAMA-1, 100 nM compound, 48 h, vs 100 nM fulvestrant
Sequence of estrogen receptor (ERα) in CAMA-1 cells (P03372 whole entry): as above

[4] = biological target: T1, Estrogen Receptor (ERα) in MCF-7 cells; assay: Western blotting assay, ER down-regulation in MCF-7; type: cell-based; details: MCF-7, 100 nM compound, 48 h, vs 100 nM fulvestrant
[5] = Log D (shake flask, 1-octanol/aqueous buffer); type: physicochemical; details: 1-octanol/aqueous buffer, pH 7.4, pH 7.4
[6] = Thermodynamic solubility (shake-flask); type: physicochemical; details: aqueous phosphate buffer, 25 °C, pH 7.4, aqueous buffer, thermodynamic from solid, phosphate buffer pH 7.4, 24 hours
[7] = Human plasma protein binding (equilibrium dialysis); type: in vitro ADME
hERG potassium channel = hERG potassium channel (Homo sapiens (Human), UniProt Q12809)
Sequence of hERG potassium channel (Q12809 whole entry): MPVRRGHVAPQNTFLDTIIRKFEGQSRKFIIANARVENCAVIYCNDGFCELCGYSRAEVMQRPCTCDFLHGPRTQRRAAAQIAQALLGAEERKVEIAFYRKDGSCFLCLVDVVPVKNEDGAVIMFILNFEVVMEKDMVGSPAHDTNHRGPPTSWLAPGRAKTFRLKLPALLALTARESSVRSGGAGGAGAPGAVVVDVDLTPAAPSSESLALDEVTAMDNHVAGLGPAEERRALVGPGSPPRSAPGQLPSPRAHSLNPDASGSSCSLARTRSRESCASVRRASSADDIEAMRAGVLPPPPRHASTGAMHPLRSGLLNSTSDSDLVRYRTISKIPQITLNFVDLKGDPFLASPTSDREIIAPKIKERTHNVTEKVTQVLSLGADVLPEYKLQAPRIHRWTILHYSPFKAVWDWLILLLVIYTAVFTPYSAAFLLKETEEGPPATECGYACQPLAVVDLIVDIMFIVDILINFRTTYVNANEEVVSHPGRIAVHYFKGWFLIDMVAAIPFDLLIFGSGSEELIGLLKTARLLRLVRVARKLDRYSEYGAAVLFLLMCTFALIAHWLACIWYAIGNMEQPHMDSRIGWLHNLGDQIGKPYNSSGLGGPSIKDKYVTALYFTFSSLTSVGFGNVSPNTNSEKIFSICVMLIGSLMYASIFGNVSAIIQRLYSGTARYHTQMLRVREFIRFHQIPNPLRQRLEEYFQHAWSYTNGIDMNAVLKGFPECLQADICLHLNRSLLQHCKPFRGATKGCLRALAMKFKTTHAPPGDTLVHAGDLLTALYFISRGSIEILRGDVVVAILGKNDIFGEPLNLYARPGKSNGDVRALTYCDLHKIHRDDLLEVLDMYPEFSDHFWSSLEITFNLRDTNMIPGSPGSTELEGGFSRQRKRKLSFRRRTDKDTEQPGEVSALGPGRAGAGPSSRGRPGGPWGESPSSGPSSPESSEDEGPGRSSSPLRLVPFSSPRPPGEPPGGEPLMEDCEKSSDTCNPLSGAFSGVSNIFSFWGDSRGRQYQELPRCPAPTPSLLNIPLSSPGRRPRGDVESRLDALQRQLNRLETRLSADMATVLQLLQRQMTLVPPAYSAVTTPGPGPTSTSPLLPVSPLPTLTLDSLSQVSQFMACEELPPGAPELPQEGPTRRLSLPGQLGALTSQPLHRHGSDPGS
Method: The assay was conducted as follows with all reagents used at room temperature unless otherwise stated.
All compounds were acoustically dispensed in quadruplicate using a Labcyte Echo.
Calculation of results is performed using APC package within Genedata. For the routine normalization of well data with Neutral and Inhibitor control well groups as reference, GeneData Assay Analyzer uses the following equation to normalize the signal values to the desired signal range:
[formula] x is the measured raw signal value of a well is the median of the measured signal values for the Central Reference (Neutral) wells on a plate is the median of the measured signal values for the Scale Reference (Inhibitor) wells on a plate CR is the desired median normalized value for the Central Reference (Neutral) SR is the desired median normalized value for the Scale Reference (Inhibitor)

Sequence of recombinant human Estrogen Receptor alpha ligand binding domain (ER alpha-LBD (GST)) (P03372 307-554): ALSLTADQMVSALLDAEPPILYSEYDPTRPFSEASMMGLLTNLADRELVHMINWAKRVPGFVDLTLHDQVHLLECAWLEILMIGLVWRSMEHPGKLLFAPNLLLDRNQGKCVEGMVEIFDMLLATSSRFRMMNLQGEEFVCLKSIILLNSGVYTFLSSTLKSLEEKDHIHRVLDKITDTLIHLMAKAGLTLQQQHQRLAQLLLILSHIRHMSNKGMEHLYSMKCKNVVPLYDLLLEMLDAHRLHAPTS

Cc1c(OCCNCCCF)ccnc1[C@@H]1c2[nH]c3ccccc3c2C[C@@H](C)N1CC(F)(F)CO [Example 96, 2,2-difluoro-3-((1S,3R)-1-(4-(2-((3-fluoropropyl)amino)ethoxy)-3-methylpyridin-2-yl)-3-methyl-1,3,4,9-tetrahydro-2H-pyrido[3,4-b]indol-2-yl)propan-1-ol]
IC50 [1]: 1.4 nM
IC50 [2]: 0.2 nM
CAMA1 Western % ER deg vs Fv [3]: 100%
MCF7 Western % ER deg vs Fv [4]: 94%
logD [5]: 2.4
solubility at 24 h [6]: 960 µM (≈ 471 µg/mL)
Human plasma protein binding (% free) [7]: 7.1 % free
IC50 (hERG potassium channel): 10000 nM

C[C@@H]1Cc2c([nH]c3ccccc23)[C@@H](c2cc(OCCNCCCF)ccc2Cl)N1CC(F)(F)CO [Example 44, 3-((1R,3R)-1-(2-chloro-5-(2-((3-fluoropropyl)amino)ethoxy)phenyl)-3-methyl-1,3,4,9-tetrahydro-2H-pyrido[3,4-b]indol-2-yl)-2,2-difluoropropan-1-ol]
IC50 [1]: 1 nM
IC50 [2]: 0.14 nM
CAMA1 Western % ER deg vs Fv [3]: 94%
MCF7 Western % ER deg vs Fv [4]: 95%
logD [5]: 3.3
solubility at 24 h [6]: 278 µM (≈ 142 µg/mL)
Human plasma protein binding (% free) [7]: 2.3 % free
IC50 (hERG potassium channel): 2900 nM

C[C@@H]1Cc2c([nH]c3ccccc23)[C@@H](c2cc(OCCNCCCF)ccc2C#N)N1CC(F)(F)F [Example 23, 4-(2-((3-fluoropropyl)amino)ethoxy)-2-((1R,3R)-3-methyl-2-(2,2,2-trifluoroethyl)-2,3,4,9-tetrahydro-1H-pyrido[3,4-b]indol-1-yl)benzonitrile]
IC50 [1]: 2.7 nM
IC50 [2]: 0.5 nM
CAMA1 Western % ER deg vs Fv [3]: 95%
MCF7 Western % ER deg vs Fv [4]: 95%
logD [5]: 3.4
solubility at 24 h [6]: 73 µM (≈ 35.7 µg/mL)
Human plasma protein binding (% free) [7]: 3.7 % free
IC50 (hERG potassium channel): 5400 nM

C[C@@H]1Cc2c([nH]c3c(F)cccc23)[C@@H](c2c(F)ccc(OCCNCCCF)c2F)N1CC(F)(F)CO [Example 60, 3-((1R,3R)-1-(2,6-difluoro-3-(2-((3-fluoropropyl)amino)ethoxy)phenyl)-8-fluoro-3-methyl-1,3,4,9-tetrahydro-2H-pyrido[3,4-b]indol-2-yl)-2,2-difluoropropan-1-ol]
IC50 [1]: 0.84 nM
IC50 [2]: 0.12 nM
CAMA1 Western % ER deg vs Fv [3]: 97%
MCF7 Western % ER deg vs Fv [4]: 92%
logD [5]: 3
solubility at 24 h [6]: 351 µM (≈ 186 µg/mL)
Human plasma protein binding (% free) [7]: 1.9 % free
IC50 (hERG potassium channel): 4400 nM

COc1ccc(OCCNCCCF)cc1[C@@H]1c2[nH]c3ccc(F)cc3c2C[C@@H](C)N1CC(F)(F)CO [Example 46, 2,2-difluoro-3-((1R,3R)-6-fluoro-1-(5-(2-((3-fluoropropyl)amino)ethoxy)-2-methoxyphenyl)-3-methyl-1,3,4,9-tetrahydro-2H-pyrido[3,4-b]indol-2-yl)propan-1-ol]
IC50 [1]: 1 nM
IC50 [2]: 0.22 nM
CAMA1 Western % ER deg vs Fv [3]: 89%
MCF7 Western % ER deg vs Fv [4]: 83%
logD [5]: 2.8
solubility at 24 h [6]: 462 µM (≈ 242 µg/mL)
Human plasma protein binding (% free) [7]: 2.4 % free
IC50 (hERG potassium channel): 2700 nM

C[C@@H]1Cc2c([nH]c3ccc(F)cc23)[C@@H](c2c(F)cnc(OCCNCCCF)c2F)N1CC(F)(F)CO [Example 65, 3-((1R,3R)-1-(3,5-difluoro-2-(2-((3-fluoropropyl)amino)ethoxy)pyridin-4-yl)-6-fluoro-3-methyl-1,3,4,9-tetrahydro-2H-pyrido[3,4-b]indol-2-yl)-2,2-difluoropropan-1-ol]
IC50 [1]: 0.64 nM
IC50 [2]: 0.058 nM
CAMA1 Western % ER deg vs Fv [3]: 97%
MCF7 Western % ER deg vs Fv [4]: 94%
logD [5]: 3
solubility at 24 h [6]: 462 µM (≈ 245 µg/mL)
Human plasma protein binding (% free) [7]: 1.9 % free
IC50 (hERG potassium channel): 9400 nM

C[C@@H]1Cc2c([nH]c3ccccc23)[C@@H](c2cc(OCCNCCCF)ccn2)N1CC(F)(F)F [Example 35, 3-fluoro-N-(2-((2-((1S,3R)-3-methyl-2-(2,2,2-trifluoroethyl)-2,3,4,9-tetrahydro-1H-pyrido[3,4-b]indol-1-yl)pyridin-4-yl)oxy)ethyl)propan-1-amine]
IC50 [1]: 1.9 nM
IC50 [2]: 1.1 nM
CAMA1 Western % ER deg vs Fv [3]: 92%
MCF7 Western % ER deg vs Fv [4]: 94%
logD [5]: 3.1
solubility at 24 h [6]: 222 µM (≈ 103 µg/mL)
Human plasma protein binding (% free) [7]: 5.4 % free
IC50 (hERG potassium channel): 5600 nM

C[C@@H]1Cc2c([nH]c3ccc(F)cc23)[C@@H](c2c(F)ccc(OCCNCCCF)c2F)N1CC(F)(F)CO [Example 15, 3-((1R,3R)-1-(2,6-difluoro-3-(2-((3-fluoropropyl)amino)ethoxy)phenyl)-6-fluoro-3-methyl-1,3,4,9-tetrahydro-2H-pyrido[3,4-b]indol-2-yl)-2,2-difluoropropan-1-ol]
IC50 [1]: 0.55 nM
IC50 [2]: 0.079 nM
CAMA1 Western % ER deg vs Fv [3]: 91%
MCF7 Western % ER deg vs Fv [4]: 94%
logD [5]: 2.9
solubility at 24 h [6]: 571 µM (≈ 302 µg/mL)
Human plasma protein binding (% free) [7]: 3.2 % free
IC50 (hERG potassium channel): 4600 nM

C[C@@H]1Cc2c([nH]c3ccccc23)[C@@H](c2c(F)ccc(OCCNCCCF)c2F)N1CC(F)F [Example 51, N-(2-(3-((1R,3R)-2-(2,2-difluoroethyl)-3-methyl-2,3,4,9-tetrahydro-1H-pyrido[3,4-b]indol-1-yl)-2,4-difluorophenoxy)ethyl)-3-fluoropropan-1-amine]
IC50 [1]: 1.2 nM
IC50 [2]: 0.12 nM
CAMA1 Western % ER deg vs Fv [3]: 93%
MCF7 Western % ER deg vs Fv [4]: 92%
logD [5]: 3.2
solubility at 24 h [6]: 122 µM (≈ 58.7 µg/mL)
Human plasma protein binding (% free) [7]: 2.3 % free
IC50 (hERG potassium channel): 4100 nM

COc1ccc(OCCNCCCF)cc1[C@@H]1c2[nH]c3ccccc3c2C[C@@H](C)N1CC(F)(F)F [Example 7, 3-Fluoro-N-(2-(4-methoxy-3-((1R,3R)-3-methyl-2-(2,2,2-trifluoroethyl)-2,3,4,9-tetrahydro-1H-pyrido[3,4-b]indol-1-yl)phenoxy)ethyl)propan-1-amine]
IC50 [1]: 1.5 nM
IC50 [2]: 0.12 nM
CAMA1 Western % ER deg vs Fv [3]: 90%
MCF7 Western % ER deg vs Fv [4]: 100%
logD [5]: 3.7
solubility at 24 h [6]: 35 µM (≈ 17.3 µg/mL)
Human plasma protein binding (% free) [7]: 1.5 % free
IC50 (hERG potassium channel): 3800 nM

C[C@@H]1Cc2c([nH]c3ccccc23)[C@@H](c2nccc(OCCNCCCF)c2F)N1CC(F)(F)CO [Example 97, 2,2-difluoro-3-((1S,3R)-1-(3-fluoro-4-(2-((3-fluoropropyl)amino)ethoxy)pyridin-2-yl)-3-methyl-1,3,4,9-tetrahydro-2H-pyrido[3,4-b]indol-2-yl)propan-1-ol]
IC50 [1]: 2.2 nM
IC50 [2]: 0.66 nM
CAMA1 Western % ER deg vs Fv [3]: 84%
MCF7 Western % ER deg vs Fv [4]: 89%
logD [5]: 1.8
solubility at 24 h [6]: > 1000 µM
Human plasma protein binding (% free) [7]: 6.8 % free
IC50 (hERG potassium channel): 18000 nM

COc1ccc(NCCNCCCF)c(F)c1[C@@H]1c2[nH]c3ccccc3c2C[C@@H](C)N1CC(F)(F)F [Example 90, N1-(2-fluoro-4-methoxy-3-((1R,3R)-3-methyl-2-(2,2,2-trifluoroethyl)-2,3,4,9-tetrahydro-1H-pyrido[3,4-b]indol-1-yl)phenyl)-N2-(3-fluoropropyl)ethane-1,2-diamine]
IC50 [1]: 0.65 nM
IC50 [2]: 0.3 nM
CAMA1 Western % ER deg vs Fv [3]: 93%
MCF7 Western % ER deg vs Fv [4]: 76%
logD [5]: 2.8
solubility at 24 h [6]: 365 µM (≈ 186 µg/mL)
Human plasma protein binding (% free) [7]: 1.1 % free
IC50 (hERG potassium channel): 5000 nM
